Test results reported in patent US20150218212A1, “FLUORINATED EPOXYKETONE-BASED TETRAPEPTIDE COMPOUNDS AND USES THEREOF AS PROTEASOME INHIBITORS” (FLUORINOV PHARMA INC., priority 2012, published 2015).

Legend:
KMS-11 = assay: Cell viability (MTS) assay, KMS-11; format: cell-based; conditions: Homo sapiens; KMS-11, MTS, 72 hours, mean ± standard deviation
Description: Human multiple myeloma cell lines 8226, H929, JJN3, KMH11, KMS11, KMS18, LP1, MM1S, OPM2 and U266 were grown in Iscove modified Dulbecco's medium (IMDM). Human leukemia cell lines K562, OCI-AML2 and U937 were cultured in RPMI-1640 medium. Primary peripheral blood mononuclear cells were isolated from multiple myeloma patients by Ficoll density gradient centrifugation and bone marrow aspirates were obtained from multiple myeloma patients at the Princess Margaret Cancer Centre of the University Health Network (UHN; Toronto, ON, Canada). Primary cells were cultured in IMDM. The collection and use of human tissue for this study was approved by the UHN institutional ethics review board. All cell culture media were obtained from the Ontario Cancer Institute Tissue Culture Media Facility (Toronto, ON, Canada) and were supplemented with 10% fetal calf serum, […] (Hyclone, Logan, Utah). All cells were grown in a humidified incubator at 37° C. with 5% CO2.
Cellular viability was primarily assessed by 3-(4,5-dimethylthiazol-2-yl)-5-(3-carboxymethoxyphenyl)-2-(4-sulfophenyl)-2H-tetrazolium (MTS) assay according to the manufacturer's instructions (Promega; Madison, Wis.). Cells were first seeded at a density of 10,000 cells per well in tissue culture-treated 96-well plates. Two hours after seeding, cells were treated with compounds for 72 hours at concentrations as indicated. As a control, cells were treated with DMSO alone in every assay plate. Following treatment and the MTS assay, cell viability was independently confirmed by reading the optical density (O.D.) at 490 nm and by exclusion of trypan blue stain (Invitrogen; Burlington, ON, Canada). The viability of primary mononuclear cells was determined by staining with Annexin V.
Table 8 summarizes the data of representative compounds of Formula I for cell viability and CT-L proteasome activity with OCI-AML-2 and KMS-11 cell lines.

HL-60(TB) = assay: NCI screening panel, HL-60(TB) (Leukemia); format: cell-based, human
Description: (§1) Representative compounds of Formula I were screened using the National Cancer Institute (NCI) screening panel, which consists of a panel of human tumor cell lines, representing leukemia, melanoma, and cancers of the lung, colon, ovary, breast, prostate and renal system.
(§2) After 24 h, two plates of each cell line are fixed in situ with TCA, to represent a measurement of the cell population for each cell line at the time of drug addition (Tz). Experimental drugs are solubilised in dimethyl sulfoxide at 400-fold the desired final maximum test concentration and stored frozen prior to use. At the time of drug addition, an aliquot of frozen concentrate is thawed and diluted to twice the desired final maximum test concentration with complete medium containing 50 μg/mL gentamicin. Additional four, 10-fold or ½ log serial dilutions are made to provide a total of five drug concentrations plus control. Aliquots of 100 μl of these different drug dilutions are added to the appropriate microtiter wells already containing 100 μl of medium, resulting in the required final drug concentrations.
(§3) Following drug addition, the plates are incubated for an additional 48 h at 37° C., 5% CO2, 95% air, and 100% relative humidity. For adherent cells, the assay is terminated by the addition of cold TCA (trichloroacetic acid). Cells are fixed in situ by the gentle addition of 50 μl of cold 50% (w/v) TCA (final concentration, 10% TCA) and incubated for 60 minutes at 4° C. The supernatant is discarded, and the plates are washed five times with tap water and air dried. Sulforhodamine B (SRB) solution (100 μl) at 0.4% (w/v) in 1% acetic acid is added to each well, and plates are incubated for 10 minutes at room temperature. After staining, unbound dye is removed by washing five times with 1% acetic acid and the plates are air dried. Bound stain is subsequently solubilised with 10 mM trizma base, and the absorbance is read on an automated plate reader at a wavelength of 515 nm. For suspension cells, the methodology is the same except that the assay is terminated by fixing settled cells at the bottom of the wells by gently adding 50 μl of 80% TCA (final concentration, 16% TCA). Using the seven absorbance measurements [time zero, (Tz), control growth, (C), and test growth in the presence of drug at the five concentration levels (Ti)], the percentage growth is calculated at each of the drug concentrations levels. Percentage growth inhibition is calculated as: [(Ti−Tz)/(C−Tz)]×100 for concentrations for which Ti>/=Tz and [(Ti−Tz)/Tz]×100 for concentrations for which Ti<Tz.
(§4) Three dose response parameters are calculated for each experimental agent. Growth inhibition of 50% (GI50) is calculated from [(Ti−Tz)/(C−Tz)]×100=50, which is the drug concentration resulting in a 50% reduction in the net protein increase (as measured by SRB staining) in control cells during the drug incubation. The drug concentration resulting in total growth inhibition (TGI) is calculated from Ti=Tz. The LC50 (concentration of drug resulting in a 50% reduction in the measured protein at the end of the drug treatment as compared to that at the beginning) indicating a net loss of cells following treatment is calculated from [(Ti−Tz)/Tz]×100=−50. Values are calculated for each of these three parameters if the level of activity is reached. However, if the effect is not reached or is exceeded, the value for that parameter is expressed as greater or less than the maximum or minimum concentration tested.

K-562 = assay: NCI screening panel, K-562 (Leukemia); format: cell-based, human
Description: as §1, §2, §3, §4

HOP-62 = assay: NCI screening panel, HOP-62 (Non-Small Cell Lung Cancer); format: cell-based, human
Description: as §1, §2, §3, §4

NCI-H322M = assay: NCI screening panel, NCI-H322M (Non-Small Cell Lung Cancer); format: cell-based, human
Description: as §1, §2, §3, §4

NCI-H522 = assay: NCI screening panel, NCI-H522 (Non-Small Cell Lung Cancer); format: cell-based, human
Description: as §1, §2, §3, §4

HCT-116 = assay: NCI screening panel, HCT-116 (Colon Cancer); format: cell-based, human
Description: as §1, §2, §3, §4

SW-620 = assay: NCI screening panel, SW-620 (Colon Cancer); format: cell-based, human
Description: as §1, §2, §3, §4

MALME-3M = assay: NCI screening panel, MALME-3M (Melanoma); format: cell-based, human
Description: as §1, §2, §3, §4

IGROV1 = assay: NCI screening panel, IGROV1 (Ovarian Cancer); format: cell-based, human
Description: as §1, §2, §3, §4

T-47D = assay: NCI screening panel, T-47D (Breast Cancer); format: cell-based, human
Description: as §1, §2, §3, §4

Structure (SMILES)	IC50 (KMS-11) [nM]	Log10GI50 (HL-60(TB))	Log10LC50 (HL-60(TB))	Log10TGI50 (HL-60(TB))	Log10GI50 (K-562)	Log10LC50 (K-562)	Log10TGI50 (K-562)	Log10GI50 (HOP-62)	Log10LC50 (HOP-62)	Log10TGI50 (HOP-62)	Log10GI50 (NCI-H322M)	Log10LC50 (NCI-H322M)	Log10TGI50 (NCI-H322M)	Log10GI50 (NCI-H522)	Log10TGI50 (NCI-H522)	Log10GI50 (HCT-116)	Log10LC50 (HCT-116)	Log10TGI50 (HCT-116)	Log10GI50 (SW-620)	Log10LC50 (SW-620)	also measured
CC(C)C[C@H](NC(=O)[C@H](COC(F)F)NC(=O)CN1CCOCC1)C(=O)N[C@@H](COC(F)F)C(=O)N[C@@H](CC(C)C)C(=O)[C@@]1(C)CO1 [Example 1, (2S)—N-[(1S)-1-(difluoromethoxymethyl)-2-[[(1S)-3-methyl-1-[(2R)-2-methyloxirane-2-carbonyl]butyl]amino]-2-oxo-ethyl]-2-[[(2S)-3-(difluoromethoxy)-2-[(2-morpholinoacetyl)amino]propanoyl]amino]-4-methyl-pentanamide]	26.6 ± 8.47	−7.49	>−4.00	−6.30	−7.38	>−4.00	>−4.00	−7.76	−6.57	−7.33	−7.19	−4.86	−6.45	−7.96	−7.05	-8.00	−6.33	−7.34	−7.54	>−4.00	Log10LC50 (NCI-H522): −4.04; Log10TGI50 (SW-620): −5.43; Log10GI50 (MALME-3M): −7.39; Log10LC50 (MALME-3M): >−4.00; Log10TGI50 (MALME-3M): −6.49; Log10GI50 (IGROV1): −7.43; Log10LC50 (IGROV1): >−4.00; Log10TGI50 (IGROV1): −6.40; Log10GI50 (T-47D): −7.94; Log10LC50 (T-47D): −7.11; Log10TGI50 (T-47D): −7.53
CC(C)C[C@H](NC(=O)[C@H](COC(F)F)NC(=O)CN1CCOCC1)C(=O)N[C@@H](Cc1ccccc1)C(=O)N[C@@H](CC(C)C)C(=O)[C@@]1(C)CO1 [Example 2, (2S)-N-[(1S)-1-benzyl-2-[[(1S)-3-methyl-1-[(2R)-2-methyloxirane-2-carbonyl]butyl]-amino]-2-oxo-ethyl]-2-[[(2S)-3-(difluoromethoxy)-2-[(2-morpholinoacetyl)amino]propanoyl]amino]-4-methyl-pentanamide]	21.9 ± 0.342	−7.55	>−4.00	−6.11	−7.49	>−4.00	>−4.00	−7.90	−7.04	−7.47	−7.01	−5.35	−6.43	<−8.00	−7.43	<-8.00	−6.97	−7.72	<−8.00	>−4.00	Log10TGI50 (SW-620): −5.92; Log10GI50 (IGROV1): −7.59; Log10LC50 (IGROV1): >−4.00; Log10TGI50 (IGROV1): −6.66; Log10GI50 (T-47D): <−8.00; Log10TGI50 (T-47D): −7.55
